The source of these data is US20230416261A1, “ETHANEDIAMINE-HETEROCYCLE DERIVATIVES AS INHIBITORS OF PROTEIN ARGININE METHYLTRANSFERASES” (Board of Regents, The University of Texas System, priority 2021, published 2023).

Experiment [1] concerns the target T1, PRMT1 (Homo sapiens, UniProt Q99873). Briefly: PRMT1 RKO Cellular Target Engagement Assay (In-Cell Western, asymmetric di-methyl arginine). Particulars: RKO cells, 48 hr compound incubation; read-out: RKO IC50 (PRMT-1 Target Engagement). It counts as cell-based. In a few lines: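 RKO cells (1,000/well) received 1:3 serially diluted compound for 48 h at 37 °C, then were fixed, permeabilised and immunostained for asymmetric di-methyl arginine by In-Cell Western. The 800 nm antibody signal was normalised to CellTag 700 nm; IC50 from four-parameter logistic fit.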

Experiment [2] has as its target T1, PRMT1. Briefly: PRMT1 Enzymatic Assay (LANCE TR-FRET, methylation of histone H4 at Arg3). It counts as biochemical. Also noted: purchased SignalChem P365-380G. Particulars: PRMT1 1.5 nM, SAM 1 μM, biotinylated histone H4 (1-21) 25 nM; read-out: PRMT-1 IC50. In a few lines:
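PRMT1 (1.5 nM) preincubated 15 min with compound at room temperature, then reacted 1 h with 1 μM SAM and 25 nM biotinylated histone H4 (1-21) in 50 mM Hepes pH 8, 1 mM TCEP, 0.003% Tween-20. H4R3me detected by TR-FRET (665/620 nm ratio); IC50 from four-parameter logistic fit.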
(In general: Time-resolved FRET reads energy transfer from a long-lived donor to a nearby acceptor.)

Structures are written as SMILES.

T1 sequence (Q99873 whole entry): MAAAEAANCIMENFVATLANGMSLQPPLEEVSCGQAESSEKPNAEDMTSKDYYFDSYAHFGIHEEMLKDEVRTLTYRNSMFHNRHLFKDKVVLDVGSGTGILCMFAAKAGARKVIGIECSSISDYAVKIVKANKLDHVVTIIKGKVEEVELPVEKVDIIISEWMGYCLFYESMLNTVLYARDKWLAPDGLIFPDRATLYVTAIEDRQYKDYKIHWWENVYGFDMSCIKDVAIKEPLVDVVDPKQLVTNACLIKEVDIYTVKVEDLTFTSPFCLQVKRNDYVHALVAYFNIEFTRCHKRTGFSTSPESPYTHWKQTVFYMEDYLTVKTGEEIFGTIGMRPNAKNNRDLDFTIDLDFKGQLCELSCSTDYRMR

For `CNCCN(C)Cc1nn2c(c1C1CCC(COC)(COC)CC1)CN(C(=O)C1CCC1)CC2` [Example 1, (3-(4,4-Bis(methoxymethyl)cyclohexyl)-2-((methyl(2-(methylamino)ethyl)amino)methyl)-6,7-dihydropyrazolo[1,5-a]pyrazin-5(4H)-yl)(cyclobutyl)methanone], the IC50 (usually the concentration that inhibits the measured activity by half) on PRMT1 [1] came to 138 nM; on PRMT1 [2], 35 nM.
`COCC1(COC)CCC(c2c(CN(C)CCN)nn3c2CN(C(=O)C(C)(C)C)CC3)CC1` [Example 2, 1-(2-(((2-aminoethyl)(methyl)amino)methyl)-3-(4,4-bis(methoxymethyl)cyclohexyl)-6,7-dihydropyrazolo[1,5-a]pyrazin-5(4H)-yl)-2,2-dimethylpropan-1-one]: the figures for the IC50 at PRMT1 [1] and at PRMT1 [2] were 311 nM and 16 nM, respectively.
